Target: T1, human V1a receptor (Homo sapiens, UniProt P37288)
T1 construct: expressed in transfected cells; host or cells: CHO K1 (ATCC), also stably transfected with a modified aequorin
Assay: Cellular in vitro assay for vasopressin receptor activity, V1a receptor cell line (photoprotein luminescence)
Type: cell-based
Settings: Table 1A; compounds of the invention; selectivity ratio
Procedure: B-1. Cellular In Vitro Assay for Determining Vasopressin Receptor Activity
The identification of agonists and antagonists of the V1a and V2 vasopressin receptors from humans, rats and dogs as well as the quantification of the activity of the compounds of the invention is carried out using recombinant cell lines. These cell lines originally derive from a hamster's ovary epithelial cell (Chinese Hamster Ovary, CHO K1, ATCC: American Type Culture Collection, Manassas, Va. 20108, USA). The test cell lines constitutively express the human, rat or dog V1a or V2 receptors. In case of the Gαq-coupled V1a receptors, cells are also stably transfected with a modified form of the calcium-sensitive photoproteins aequorin (human and rat V1a) or obelin (dog V1a), which, after reconstitution with the cofactor coelenterazine, emit light when there are increases in free calcium concentrations [Rizzuto R, Simpson A W, Brini M, Pozzan T, Nature, 358, 325-327 (1992); Illarionov B A, Bondar V S, Illarionova V A, Vysotski E S, Gene, 153 (2), 273-274 (1995)]. The resulting vasopressin receptor cells react to stimulation of the recombinantly expressed V1a receptors by intracellular release of calcium ions, which can be quantified by the resulting photoprotein luminescence. The Gs-coupled V2 receptors are stably transfected into cell lines expressing the gene for firefly luciferase under control of a CRE-responsible promoter. Activation of V2 receptors induces the activation of the CRE-responsive promoter via cAMP increase, thereby inducing the expression of firefly luciferase. The light emitted by photoproteins of V1a cell lines as well as the light emitted by firefly luciferase of V2 cell lines corresponds to the activation or inhibition of the respective vasopressin receptor. The bioluminescence of the cell lines is detected using a suitable luminometer [Milligan G, Marshall F, Rees S, Trends in Pharmacological Sciences, 17, 235-237 (1996)].
Vasopressin V1a Receptor Cell Lines:
On the day before the assay, the cells are plated out in culture medium (DMEM/F12, 2% FCS, 2 mM glutamine, 10 mM HEPES, 5 μg/ml coelenterazine) in 384-well microtiter plates and kept in a cell incubator (96% humidity, 5% v/v CO2, 37° C.). On the day of the assay, test compounds in various concentrations are placed for 10 minutes in the wells of the microtiter plate before the agonist [Arg^8]-vasopressin at EC50 concentration is added. The resulting light signal is measured immediately in a luminometer.
Table 1A below lists individual IC50 values for the compounds of the invention (including racemic mixtures as well as separated enantiomers) that were obtained from cell lines transfected with the human V1a or V2 receptor: […]

T1 sequence (P37288 whole entry): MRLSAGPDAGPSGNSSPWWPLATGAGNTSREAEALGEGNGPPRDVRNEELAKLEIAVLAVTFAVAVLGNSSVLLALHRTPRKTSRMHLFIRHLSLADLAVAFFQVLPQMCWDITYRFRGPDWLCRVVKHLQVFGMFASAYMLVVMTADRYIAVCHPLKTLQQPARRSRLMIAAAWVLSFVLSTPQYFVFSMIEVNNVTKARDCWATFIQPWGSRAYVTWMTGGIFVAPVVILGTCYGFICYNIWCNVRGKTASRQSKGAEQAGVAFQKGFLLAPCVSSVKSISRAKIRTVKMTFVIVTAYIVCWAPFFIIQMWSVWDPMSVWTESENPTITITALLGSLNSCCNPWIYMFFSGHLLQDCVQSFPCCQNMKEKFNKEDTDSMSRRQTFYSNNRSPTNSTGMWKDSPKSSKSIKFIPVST

SMILES | ratio IC50 hV2/hV1a
NC(=O)c1nc(Cn2nc(-c3ccc(Cl)cc3)n(CC(=O)C(F)(F)F)c2=O)nn1-c1cnccc1Cl [Example 16, 3-{[3-(4-Chlorophenyl)-5-oxo-4-(3,3,3-trifluoro-2-oxopropyl)-4,5-dihydro-1H-1,2,4-triazol-1-yl]methyl}-1-(4-chloropyridin-3-yl)-1H-1,2,4-triazole-5-carboxamide (ketone form) or 3-{[3-(4-Chlorophenyl)-5-oxo-4-(3,3,3-trifluoro-2,2-dihydroxypropyl)-4,5-dihydro-1H-1,2,4-triazol-1-yl]-methyl}-1-(4-chloropyridin-3-yl)-1H-1,2,4-triazole-5-carboxamide (hydrate form)] | 53.6
NC(=O)c1cccnc1-n1nc(Cn2nc(-c3ccc(Cl)cc3)n(C[C@H](O)C(F)(F)F)c2=O)nc1C(N)=O [Example 9, 2-[5-carbamoyl-3-({3-(4-chlorophenyl)-5-oxo-4-[(2S)-3,3,3-trifluoro-2-hydroxypropyl]-4,5-dihydro-1H-1,2,4-triazol-1-yl}methyl)-1H-1,2,4-triazol-1-yl]nicotinamide] | 30.0
NC(=O)c1nc(Cn2nc(-c3ccc(Cl)cc3)n(C[C@H](O)C(F)(F)F)c2=O)nn1-c1cnccc1C(F)(F)F [Example 7, 3-({3-(4-Chlorophenyl)-5-oxo-4-[(2S)-3,3,3-trifluoro-2-hydroxypropyl]-4,5-dihydro-1H-1,2,4-triazol-1-yl}methyl)-1-[4-(trifluoromethyl)pyridin-3-yl]-1H-1,2,4-triazole-5-carboxamide] | 117.3
NC(=O)c1nc(Cn2nc(-c3ccc(Cl)cc3)n(C[C@@H](O)C(F)(F)F)c2=O)nn1-c1cnccc1Cl [Example 12, 3-({3-(4-Chlorophenyl)-5-oxo-4-[(2R)-3,3,3-trifluoro-2-hydroxypropyl]-4,5-dihydro-1H-1,2,4-triazol-1-yl}methyl)-1-(4-chloropyridin-3-yl)-1H-1,2,4-triazole-5-carboxamide] | 249.3
NC(=O)c1nc(Cn2nc(-c3ccc(Cl)cc3)n(C[C@H](O)C(F)(F)F)c2=O)nn1-c1ncccc1Br [Example 4, 1-(3-Bromopyridin-2-yl)-3-({3-(4-chlorophenyl)-5-oxo-4-[(2S)-3,3,3-trifluoro-2-hydroxypropyl]-4,5-dihydro-1H-1,2,4-triazol-1-yl}methyl)-1H-1,2,4-triazole-5-carboxamide] | 72.6
NC(=O)c1nc(Cn2nc(-c3ccc(Cl)cc3)n(C[C@H](O)C(F)(F)F)c2=O)nn1-c1ncccc1OC(F)(F)F [Example 3, 3-({3-(4-Chlorophenyl)-5-oxo-4-[(2S)-3,3,3-trifluoro-2-hydroxypropyl]-4,5-dihydro-1H-1,2,4-triazol-1-yl}methyl)-1-[3-(trifluoromethoxy)pyridin-2-yl]-1H-1,2,4-triazole-5-carboxamide] | 54.7
CCOC(=O)c1ccncc1-n1nc(Cn2nc(-c3ccc(Cl)cc3)n(C[C@H](O)C(F)(F)F)c2=O)nc1C(N)=O [Example 8, Ethyl 3-[5-carbamoyl-3-({3-(4-chlorophenyl)-5-oxo-4-[(2S)-3,3,3-trifluoro-2-hydroxypropyl]-4,5-dihydro-1H-1,2,4-triazol-1-yl}methyl)-1H-1,2,4-triazol-1-yl]isonicotinate] | 35.0
NC(=O)c1nc(Cn2nc(-c3ccc(Cl)cc3)n(C[C@H](O)C(F)(F)F)c2=O)nn1-c1cnccc1Cl [Example 6, 3-({3-(4-Chlorophenyl)-5-oxo-4-[(2S)-3,3,3-trifluoro-2-hydroxypropyl]-4,5-dihydro-1H-1,2,4-triazol-1-yl}methyl)-1-(4-chloropyridin-3-yl)-1H-1,2,4-triazole-5-carboxamide] | 43.9
NC(=O)c1nc(Cn2nc(-c3ccc(Cl)cc3)n(C[C@@H](O)C(F)(F)F)c2=O)nn1-c1ncccc1C(F)(F)F [Example 11, 3-({3-(4-Chlorophenyl)-5-oxo-4-[(2R)-3,3,3-trifluoro-2-hydroxypropyl]-4,5-dihydro-1H-1,2,4-triazol-1-yl}methyl)-1-[3-(trifluoromethyl)pyridin-2-yl]-1H-1,2,4-triazole-5-carboxamide] | 196.8

The remaining lines, values ahead:

ratio IC50 hV2/hV1a | SMILES
47.2 | NC(=O)c1nc(Cn2nc(-c3ccc(Cl)cc3)n(CC(=O)C(F)(F)F)c2=O)nn1-c1ncccc1Br [Example 15, 1-(3-Bromopyridin-2-yl)-3-{[3-(4-chlorophenyl)-5-oxo-4-(3,3,3-trifluoro-2-oxopropyl)-4,5-dihydro-1H-1,2,4-triazol-1-yl]methyl}-1H-1,2,4-triazole-5-carboxamide (ketone form) or 1-(3-Bromopyridin-2-yl)-3-{[3-(4-chlorophenyl)-5-oxo-4-(3,3,3-trifluoro-2,2-dihydroxypropyl)-4,5-dihydro-1H-1,2,4-triazol-1-yl]methyl}-1H-1,2,4-triazole-5-carboxamide (hydrate form)]
38.2 | NC(=O)c1nc(Cn2nc(-c3ccc(Cl)cc3)n(C[C@H](O)C(F)(F)F)c2=O)nn1-c1ncccc1Cl [Example 1, 3-({3-(4-Chlorophenyl)-5-oxo-4-[(2S)-3,3,3-trifluoro-2-hydroxypropyl]-4,5-dihydro-1H-1,2,4-triazol-1-yl}methyl)-1-(3-chloropyridin-2-yl)-1H-1,2,4-triazole-5-carboxamide]
116.2 | NC(=O)c1nc(Cn2nc(-c3ccc(Cl)cc3)n(C[C@@H](O)C(F)(F)F)c2=O)nn1-c1ncccc1Cl [Example 10, 3-({3-(4-Chlorophenyl)-5-oxo-4-[(2R)-3,3,3-trifluoro-2-hydroxypropyl]-4,5-dihydro-1H-1,2,4-triazol-1-yl}methyl)-1-(3-chloropyridin-2-yl)-1H-1,2,4-triazole-5-carboxamide]
20.0 | NC(=O)c1nc(Cn2nc(-c3ccc(Cl)cc3)n(CC(=O)C(F)(F)F)c2=O)nn1-c1ncccc1Cl [Example 14, 3-{[3-(4-Chlorophenyl)-5-oxo-4-(3,3,3-trifluoro-2-oxopropyl)-4,5-dihydro-1H-1,2,4-triazol-1-yl]methyl}-1-(3-chloropyridin-2-yl)-1H-1,2,4-triazole-5-carboxamide (ketone form) or 3-{[3-(4-chlorophenyl)-5-oxo-4-(3,3,3-trifluoro-2,2-dihydroxypropyl)-4,5-dihydro-1H-1,2,4-triazol-1-yl]methyl}-1-[2-(trifluoromethyl)phenyl]-1H-1,2,4-triazole-5-carboxamide (hydrate form)]
85.9 | CCOC(=O)c1cccnc1-n1nc(Cn2nc(-c3ccc(Cl)cc3)n(C[C@H](O)C(F)(F)F)c2=O)nc1C(N)=O [Example 5, Ethyl 2-[5-carbamoyl-3-({3-(4-chlorophenyl)-5-oxo-4-[(2S)-3,3,3-trifluoro-2-hydroxypropyl]-4,5-dihydro-1H-1,2,4-triazol-1-yl}methyl)-1H-1,2,4-triazol-1-yl]nicotinate]
431.3 | NC(=O)c1nc(Cn2nc(-c3ccc(Cl)cc3)n(C[C@@H](O)C(F)(F)F)c2=O)nn1-c1cnccc1C(F)(F)F [Example 13, 3-({3-(4-Chlorophenyl)-5-oxo-4-[(2R)-3,3,3-trifluoro-2-hydroxypropyl]-4,5-dihydro-1H-1,2,4-triazol-1-yl}methyl)-1-[4-(trifluoromethyl)pyridin-3-yl]-1H-1,2,4-triazole-5-carboxamide]
141.0 | NC(=O)c1nc(Cn2nc(-c3ccc(Cl)cc3)n(C[C@H](O)C(F)(F)F)c2=O)nn1-c1ncccc1C(F)(F)F [Example 2, 3-({3-(4-Chlorophenyl)-5-oxo-4-[(2S)-3,3,3-trifluoro-2-hydroxypropyl]-4,5-dihydro-1H-1,2,4-triazol-1-yl}methyl)-1-[3-(trifluoromethyl)pyridin-2-yl]-1H-1,2,4-triazole-5-carboxamide]

Reference: patent US11091463B2, “Amide-substituted pyridinyltriazole derivatives and uses thereof” (BAYER PHARMA AKTIENGESELLSCHAFT, priority 2016, dated 2021)
